Measured values: US20090197955A1, “METHODS OF IMPROVING DHA DEPOSITION AND RELATED FUNCTION AND/OR DEVELOPMENT” (Monsanto Company, priority 2008, published 2009)

Experiment: Fatty acid composition of pig tissues (ham, loin, belly, skin) after feeding SDA ethyl ester diets, 35 day study
Format: in vivo, pigs
Details: 35 days
Description: A 35 day study was conducted to determine whether pigs fed a diet containing SDA could enhance tissues with improved fatty acid profiles including increased levels of SDA, EPA, and DHA.
Four test diets (Treatment 2, 3, 4, and 5) with SDA ethyl ester substituted for corn oil to provide 0.2, 0.4, 0.6 and 0.8% (w/w SDA active ingredient, as-is basis) were fed ad libitum to one pen of four pigs throughout the 35-day test period Table 4). All diets were fed in meal form. Treatment 6 was fed the same diet as Treatment 5, but for a duration of only 21 days.
All pigs were individually weighed at initiation of the acclimation and test period, and immediately prior to slaughter. Feed consumption per pen was recorded. Upon completion of the feeding period, pigs were slaughtered for tissue collection and carcass evaluation. Pigs were slaughtered using standard industry practices (electrical stunning, exsanguinations, scalding, dehairing and evisceration). Live weights prior to slaughter and hot carcass weights were recorded. The left side of each carcass was fabricated and samples were obtained from the loin (longissimus muscle), ham (semimembranosus muscle) and belly (a section from the center of the belly) for sensory evaluation, fatty acid, and proximate analysis. Prior to removing the sample for sensory and fatty and proximate analysis from the belly the firmness of the belly was evaluated using a flop test. At 24 hr postmortem fat thickness (10th rib), loin eye area (10th rib), visual color, firmness and marbling, Minolta color (L*a*b*), pH, and drip loss were measured.
In order to evaluate the fatty acid composition of pig tissues (loin, ham, skin, and belly), samples were stored at −80° C. until evaluation. After thawing, ˜22 g of fresh pig tissue was chopped into small pieces and thoroughly mixed before 10 g was sub sampled and lyophilized. Lyophilized samples were ground in 30 ml Sarstedt tubes with two ball bearings using a Mega Grinder. Ground samples (loin and ham: 50 mg; skin: 100 mg; belly: 150 mg; diet: 500 mg) were directly methylated with sulfuric acid in methanol (loin and ham: 1 mL; skin: 3 mL; belly: 10 mL; diet: 1.5 mL) sealed in the presence of butylated hydroxytoluene (50 mg BHT in 100 ml reagent) in reflux conditions of 90° C. Resultant fatty acid methyl esters (FAME's) were separated by capillary gas chromatography (GC) and detected by flame ionization detector (FID). The column used was a Supelco Omegawax 250 capillary column with dimensions of 30 m×0.25 mm×0.25 μm film thickness. The run time was 32 minutes. Peaks were identified based on their relative retention time compared to a FAME reference mixture. Quantification was achieved by using an internal standard (c15:0 triacylglyceride (TAG) for pig tissue samples and c17:0 TAG for diet samples). Results are reported as FA g/100 g fat with theoretical response correction.
For Table 6 below, each value represents g/100 g total fatty acids a mean of 4 samples (1 sample from each of 4 pigs) per treatment.

For `CC/C=C\C/C=C\C/C=C\C/C=C\CCCCC(=O)O` [SDA, stearidonic acid], the “12:0, ham” value (0.2% SDA feed) was 0.06 g FA per 100 g fat, the “14:0, ham” value (0.2% SDA feed) was 1.06 g FA per 100 g fat and the “16:0, ham” value (0.2% SDA feed) was 21.24 g FA per 100 g fat. The “16:1 n-7, ham” value (0.2% SDA feed) was 3.58 g FA per 100 g fat, the “16:1 n-9, ham” value (0.2% SDA feed) was 0.26 g FA per 100 g fat and the “18:0, ham” value (0.2% SDA feed) was 10.13 g FA per 100 g fat. For the same compound, the “18:1 n-7, ham” value (0.2% SDA feed) was 4.55 g FA per 100 g fat, the “18:1 n-9, ham” value (0.2% SDA feed) was 40.91 g FA per 100 g fat and the “18:2 n-6 (LA), ham” value (0.2% SDA feed) was 8.86 g FA per 100 g fat. The “18:3 n-3 (ALA), ham” value (0.2% SDA feed) was 0.20 g FA per 100 g fat, the “18:3 n-6 (GLA), ham” value (0.2% SDA feed) was 0.08 g FA per 100 g fat and the “18:4 n-3 (SDA), ham” value (0.2% SDA feed) was 0.03 g FA per 100 g fat. The “20:0, ham” value (0.2% SDA feed) was 0.16 g FA per 100 g fat, the “20:1 n-7, ham” value (0.2% SDA feed) was 0.04 g FA per 100 g fat and the “20:1 n-9, ham” value (0.2% SDA feed) was 0.69 g FA per 100 g fat. For the same compound, the “20:1 n-11, ham” value (0.2% SDA feed) was 0.04 g FA per 100 g fat, the “20:2 n-6, ham” value (0.2% SDA feed) was 0.38 g FA per 100 g fat and the “20:3 n-3, ham” value (0.2% SDA feed) was 0.03 g FA per 100 g fat. The “20:3 n-6 (DGLA), ham” value (0.2% SDA feed) was 0.29 g FA per 100 g fat, the “20:4 n-3 (ETA), ham” value (0.2% SDA feed) was 0.09 g FA per 100 g fat and the “20:4 n-6 (AA), ham” value (0.2% SDA feed) was 1.96 g FA per 100 g fat. The “20:5 n-3 (EPA), ham” value (0.2% SDA feed) was 0.17 g FA per 100 g fat, the “22:0, ham” value (0.2% SDA feed) was 0.03 g FA per 100 g fat and the “22:1 n-9, ham” value (0.2% SDA feed) was 0.00 g FA per 100 g fat. For the same compound, the “22:1 n-11, ham” value (0.2% SDA feed) was 0.00 g FA per 100 g fat, the “22:1 n-13, ham” value (0.2% SDA feed) was 0.00 g FA per 100 g fat and the “22:2 n-7, ham” value (0.2% SDA feed) was 0.00 g FA per 100 g fat. For the same compound, the “22:3 n-6, ham” value (0.2% SDA feed) was 0.24 g FA per 100 g fat, the “22:5 n-3 (DPA), ham” value (0.2% SDA feed) was 0.39 g FA per 100 g fat and the “22:6 n-3 (DHA), ham” value (0.2% SDA feed) was 0.09 g FA per 100 g fat. For the same compound, the “24:1 n-9, ham” value (0.2% SDA feed) was 0.04 g FA per 100 g fat, the “Total PUFA, ham” value (0.2% SDA feed) was 12.82 g FA per 100 g fat and the “Total monoenes, ham” value (0.2% SDA feed) was 50.11 g FA per 100 g fat. For the same compound, the “Total n-3, ham” value (0.2% SDA feed) was 1.01 g FA per 100 g fat, the “Total n-6, ham” value (0.2% SDA feed) was 11.81 g FA per 100 g fat and the “Total saturates, ham” value (0.2% SDA feed) was 32.68 g FA per 100 g fat. For the same compound, the “n-6/n-3, ham” value (0.2% SDA feed) was 11.69, the “DHA enrichment in ham” value (0.2-0.8% SDA) was “enriched in ham in a dose dependent manner” and the “DPA enrichment in loin and ham tissues” value (0.2-0.8% SDA) was “enriched in loin and ham tissues in a dose dependent manner”. For the same compound, the “SDA, ETA and EPA enrichment in belly, loin, ham and skin tissues” value (0.2-0.8% SDA) was “enriched in belly, loin, ham, and skin tissues in a dose dependent manner”, the “12:0, ham” value (0.4% SDA feed) was 0.06 g FA per 100 g fat and the “14:0, ham” value (0.4% SDA feed) was 1.10 g FA per 100 g fat. The “16:0, ham” value (0.4% SDA feed) was 21.45 g FA per 100 g fat, the “16:1 n-7, ham” value (0.4% SDA feed) was 3.45 g FA per 100 g fat and the “16:1 n-9, ham” value (0.4% SDA feed) was 0.25 g FA per 100 g fat. The “18:0, ham” value (0.4% SDA feed) was 10.74 g FA per 100 g fat, the “18:1 n-7, ham” value (0.4% SDA feed) was 4.28 g FA per 100 g fat and the “18:1 n-9, ham” value (0.4% SDA feed) was 39.94 g FA per 100 g fat. The “18:2 n-6 (LA), ham” value (0.4% SDA feed) was 9.18 g FA per 100 g fat, the “18:3 n-3 (ALA), ham” value (0.4% SDA feed) was 0.26 g FA per 100 g fat and the “18:3 n-6 (GLA), ham” value (0.4% SDA feed) was 0.09 g FA per 100 g fat. The “18:4 n-3 (SDA), ham” value (0.4% SDA feed) was 0.03 g FA per 100 g fat, the “20:0, ham” value (0.4% SDA feed) was 0.16 g FA per 100 g fat and the “20:1 n-7, ham” value (0.4% SDA feed) was 0.04 g FA per 100 g fat. The “20:1 n-9, ham” value (0.4% SDA feed) was 0.66 g FA per 100 g fat, the “20:1 n-11, ham” value (0.4% SDA feed) was 0.04 g FA per 100 g fat and the “20:2 n-6, ham” value (0.4% SDA feed) was 0.36 g FA per 100 g fat. For the same compound, the “20:3 n-3, ham” value (0.4% SDA feed) was 0.04 g FA per 100 g fat, the “20:3 n-6 (DGLA), ham” value (0.4% SDA feed) was 0.32 g FA per 100 g fat and the “20:4 n-3 (ETA), ham” value (0.4% SDA feed) was 0.14 g FA per 100 g fat. For the same compound, the “20:4 n-6 (AA), ham” value (0.4% SDA feed) was 1.90 g FA per 100 g fat, the “20:5 n-3 (EPA), ham” value (0.4% SDA feed) was 0.23 g FA per 100 g fat and the “22:0, ham” value (0.4% SDA feed) was 0.04 g FA per 100 g fat. The “22:1 n-9, ham” value (0.4% SDA feed) was 0.01 g FA per 100 g fat, the “22:1 n-11, ham” value (0.4% SDA feed) was 0.00 g FA per 100 g fat and the “22:1 n-13, ham” value (0.4% SDA feed) was 0.00 g FA per 100 g fat. For the same compound, the “22:2 n-7, ham” value (0.4% SDA feed) was 0.00 g FA per 100 g fat, the “22:3 n-6, ham” value (0.4% SDA feed) was 0.26 g FA per 100 g fat and the “22:5 n-3 (DPA), ham” value (0.4% SDA feed) was 0.44 g FA per 100 g fat. For the same compound, the “22:6 n-3 (DHA), ham” value (0.4% SDA feed) was 0.08 g FA per 100 g fat.
